Measured values published in US9409952B2, “Peptide-compound cyclization method” (Chugai Seiyaku Kabushiki Kaisha, priority 2011, dated 2016).
Like-named read-outs stand apart in the source and are kept apart here. Starred links: 1 amine or outer side, 2 acyl side, 3 side chain; linkers in the order of their positions; H or OH if unused. Positions of bridges follow the written chain, without caps; N, C: chain ends. Non-standard residues stand in square brackets, D forms with d. Residues, ends and D or L forms follow the SMILES beside them. *: point of attachment. Phe(3-(CH2)4CO) = O=C([C@H](Cc1cccc(CCCCC(=O)[*:3])c1)N[*:1])[*:2]; NMeF = CN[C@@H](Cc1ccccc1)C(=O)O; NMeI = CC[C@H](C)[C@H](NC)C(=O)O; NMeβAla = CN(CCC(=O)[*:2])[*:1]; Aoc(2) = CCCCCC[C@H](N)C(=O)O; NMeL = CN[C@@H](CC(C)C)C(=O)O; NMeV = CN[C@H](C(=O)O)C(C)C; NMeS = CN[C@@H](CO)C(=O)O; NMeA = CN[C@@H](C)C(=O)O; Piperidide = C1CCN(*)CC1; β3hA = C[C@H](N)CC(=O)O; Abu = CC[C@H](N)C(=O)O; Sar = CNCC(=O)O; tBu = CC(C)(C)*

Tests used:
[1] = PAMPA (parallel artificial membrane permeability assay); assay type: in vitro ADME; conditions: PAMPA
Method in brief: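 Artificial membrane was 10% (w/v) egg lecithin plus 0.5% (w/v) cholesterol in dodecane on a PVDF filter. A 10 mM DMSO stock was added at 0.5% (v/v) to donor buffer (50 mM MOPSO, pH 6.5, 5.0% glycocholic acid). After 18 h at 37 °C, LC/MS or LC/UV gave donor and acceptor levels for Pe.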

[2] = Metabolic stability in human hepatic microsome; assay type: in vitro ADME; conditions: microsomes
[3] = membrane permeation rate (Pe), 50 mM MOPSO buffer pH 6.5 with 5.0% glycocholic acid, 37° C., 18 hours, read-out: iPAMPA Pe
[4] = pH 7.4, human hepatic microsome, NADPH(+), read-out: CL NADPH(+)

Work on `CC(C)C[C@H]1C(=O)N[C@@H]([C@@H](C)O)C(=O)N(C)[C@@H](C)C(=O)N(C)[C@@H](CC(C)C)C(=O)N[C@H](C(=O)N(C)[C@@H](Cc2ccccc2)C(=O)N[C@@H](C)C(=O)N2CCCCC2)CC(=O)N(C)CCC(=O)N(C)[C@@H](Cc2ccccc2)C(=O)N(C)[C@@H](C(C)C)C(=O)N[C@@H](C(C)C)C(=O)N1C` [DP-358] ([NMeβAla][NMeF][NMeV]V[NMeL]T[NMeA][NMeL]D[NMeF]A-Piperidide; lactam N-9) yielded a Papp at 18 hours, 50 µM [1, 3] of 32 ×10⁻⁶ cm/s and a microsomal CLint at 1 uM [2, 4] of 82 µL/min/mg.

In the case of `CC[C@H](C)[C@H](NC(=O)[C@H](CC(C)C)N(C)C(=O)[C@@H]1CCCN1C(=O)[C@H](Cc1ccccc1)N(C)C(=O)[C@@H]1CC(=O)N(C)CCC(=O)N[C@@H](Cc2ccccc2)C(=O)N(C)[C@@H](CC(C)C)C(=O)N[C@@H]([C@@H](C)O)C(=O)N[C@@H](C(C)C)C(=O)NCC(=O)N(C)[C@@H](CC(C)C)C(=O)N[C@@H](CC(C)C)C(=O)N(C)[C@@H](CC(C)C)C(=O)N1)C(=O)N1CCCCC1` [DP-948] ([NMeβAla]F[NMeL]TVG[NMeL]L[NMeL]D[NMeF]P[NMeL]I-Piperidide; lactam N-10), the Papp at 18 hours, 50 µM [1, 3] is reported as 0.78 ×10⁻⁶ cm/s and the microsomal CLint at 1 uM [2, 4] is reported as 20 µL/min/mg.

Compound `CC(C)C[C@@H]1NC(=O)CN(C)C(=O)[C@H](CC(C)C)N(C)C(=O)[C@H]([C@@H](C)O)NC(=O)[C@H](CC(C)C)N(C)C(=O)[C@H](Cc2ccccc2)N(C)C(=O)[C@H](C(C)C)NC(=O)C[C@@H](C(=O)N2CCCCC2)NC1=O` [DP-691] (V[NMeF][NMeL]T[NMeL][Sar]LD-Piperidide; lactam N-8) has a Papp at 18 hours, 50 µM [1, 3] of 33 ×10⁻⁶ cm/s and a microsomal CLint at 1 uM [2, 4] of 326 µL/min/mg.

With `CC(C)C[C@H]1C(=O)N(C)[C@@H](C(C)C)C(=O)N[C@@H](Cc2ccccc2)C(=O)N[C@H](C(=O)N(C)[C@@H](Cc2ccccc2)C(=O)N(C)[C@@H](Cc2ccccc2)C(=O)N[C@@H](C)C(=O)N2CCCCC2)CC(=O)N[C@H](C)C(=O)N[C@@H](C(C)C)C(=O)N(C)[C@@H](CC(C)C)C(=O)N[C@@H]([C@@H](C)O)C(=O)N(C)[C@@H](Cc2ccccc2)C(=O)NCC(=O)N1C` [DP-501] ([dA]V[NMeL]T[NMeF]G[NMeL][NMeV]FD[NMeF][NMeF]A-Piperidide; lactam N-10) the Papp at 18 hours, 50 µM [1, 3] was 0.23 ×10⁻⁶ cm/s and the microsomal CLint at 1 uM [2, 4] was 7 µL/min/mg.

With `CCCCCC[C@@H]1NC(=O)[C@H](CC(C)C)N(C)C(=O)C[C@H](C)NC(=O)[C@H](CC)NC(=O)[C@H](CO)N(C)C(=O)[C@H](CC(C)C)N(C)C(=O)[C@H](CC(C)C)N(C)C(=O)[C@H](CC(C)C)N(C)C(=O)[C@@H](C)NC(=O)[C@H](C)NC(=O)[C@H](CC(C)C)N(C)C1=O` [DP-646] (cyclo(A[dA][NMeL][NMeL][NMeL][NMeS][Abu][β3hA][NMeL][Aoc(2)][NMeL])) the Papp at 18 hours, 50 µM [1, 3] was 29 ×10⁻⁶ cm/s and the microsomal CLint at 1 uM [2, 4] was 139 µL/min/mg.

Compound `CC(C)C[C@H]1C(=O)N(C)[C@@H](CC(C)C)C(=O)N[C@H](C(=O)N(C)[C@@H](Cc2ccccc2)C(=O)N[C@@H](C)C(=O)N2CCCCC2)CC(=O)N[C@H](C(C)C)C(=O)N(C)[C@@H](C)C(=O)N(C)[C@@H](Cc2ccccc2)C(=O)N(C)[C@@H](CC(C)C)C(=O)N[C@@H]([C@@H](C)O)C(=O)N(C)CC(=O)N[C@@H](C(C)C)C(=O)N1C` [DP-123] ([dV][NMeA][NMeF][NMeL]T[Sar]V[NMeL][NMeL]D[NMeF]A-Piperidide; lactam N-10) has a Papp at 18 hours, 50 µM [1, 3] of 58 ×10⁻⁶ cm/s and a microsomal CLint at 1 uM [2, 4] of 21 µL/min/mg.

For `CC(C)C[C@@H]1NC(=O)[C@H](CC(C)C)N(C)C(=O)[C@H](C(C)C)NC(=O)[C@H](CC(C)C)N(C)C(=O)CN(C)C(=O)[C@H](C(C)C)NC(=O)[C@H](CO)N(C)C(=O)[C@H](CC(C)C)N(C)C(=O)C[C@H](C)NC(=O)[C@H](CC(C)C)N(C)C(=O)[C@@H](C)NC1=O` [DP-653] (cyclo(L[dA][NMeL][β3hA][NMeL][NMeS]V[Sar][NMeL]V[NMeL])), the Papp at 18 hours, 50 µM [1, 3] was 33 ×10⁻⁶ cm/s and the microsomal CLint at 1 uM [2, 4] was 235 µL/min/mg.

With `CC(C)C[C@H]1C(=O)N[C@@H](COC(C)(C)C)C(=O)N[C@@H](C)CC(=O)N[C@H](C)C(=O)N(C)[C@@H](C)C(=O)N(C)[C@@H](Cc2ccccc2)C(=O)N(C)[C@@H](CC(C)C)C(=O)N[C@@H]([C@@H](C)O)C(=O)N(C)[C@@H](C)C(=O)N1C` [DP-787] (cyclo([NMeA][NMeF][NMeL]T[NMeA][NMeL]S(tBu)[β3hA][dA])) the Papp at 18 hours, 50 µM [1, 3] was 29 ×10⁻⁶ cm/s and the microsomal CLint at 1 uM [2, 4] was 33 µL/min/mg.

Work on `CC(C)C[C@H]1C(=O)N[C@@H](C(C)C)C(=O)N(C)[C@@H](Cc2ccccc2)C(=O)NCC(=O)N[C@H](C(=O)N(C)[C@@H](Cc2ccccc2)C(=O)N(C)[C@@H](Cc2ccccc2)C(=O)N[C@@H](C)C(=O)N2CCCCC2)CC(=O)N[C@H](C)C(=O)N[C@@H]([C@@H](C)O)C(=O)N(C)[C@@H](C)C(=O)N(C)[C@@H](Cc2ccccc2)C(=O)N1C` [DP-209] ([dA]T[NMeA][NMeF][NMeL]V[NMeF]GD[NMeF][NMeF]A-Piperidide; lactam N-9) yielded a Papp at 18 hours, 50 µM [1, 3] of 42 ×10⁻⁶ cm/s and a microsomal CLint at 1 uM [2, 4] of 98 µL/min/mg.

In the case of `CC[C@H](C)[C@H]1C(=O)N[C@@H](C)C(=O)N[C@H](C(=O)N2CCCCC2)CC(=O)N[C@H](C(C)C)C(=O)N[C@@H](Cc2ccccc2)C(=O)N(C)CC(=O)N[C@@H](CC(C)C)C(=O)N[C@@H](Cc2ccccc2)C(=O)N2CCC[C@H]2C(=O)N[C@@H]([C@@H](C)O)C(=O)N[C@@H](COC(C)(C)C)C(=O)N(C)[C@@H](CC(C)C)C(=O)N1C` [DP-55] ([dV]F[Sar]LFPTS(tBu)[NMeL][NMeI]AD-Piperidide; lactam N-12), the Papp at 18 hours, 50 µM ([1]; pH 6.5) is reported as 21 ×10⁻⁶ cm/s and the microsomal CLint at 1 uM ([2]; human, pH 7.4, CL NADPH(+)) is reported as 79 µL/min/mg.

`CC[C@H](C)[C@H]1C(=O)NCC(=O)N(C)[C@@H](CC(C)C)C(=O)N[C@@H](CC(C)C)C(=O)N[C@H](C(=O)N2CCCCC2)CC(=O)N(C)[C@@H](C)C(=O)N[C@@H](CC(C)C)C(=O)N(C)[C@@H](C)C(=O)N[C@@H]([C@@H](C)O)C(=O)N2CCC[C@H]2C(=O)N(C)[C@@H](Cc2ccccc2)C(=O)N[C@@H](Cc2ccccc2)C(=O)N1C` [DP-220] ([NMeA]L[NMeA]TP[NMeF]F[NMeI]G[NMeL]LD-Piperidide; lactam N-12) gave a Papp at 18 hours, 50 µM ([1]; pH 6.5) of 33 ×10⁻⁶ cm/s and a microsomal CLint at 1 uM ([2]; human, pH 7.4, CL NADPH(+)) of 26 µL/min/mg.

`CC[C@H](C)[C@@H]1NC(=O)[C@H](CC(C)C)N(C)C(=O)[C@H](C(C)C)N(C)C(=O)CCN(C)C(=O)C[C@@H](C(=O)N(C)[C@@H](Cc2ccccc2)C(=O)N[C@@H](C)C(=O)N2CCCCC2)NC(=O)[C@H]([C@@H](C)O)NC(=O)[C@H](Cc2ccccc2)N(C)C(=O)[C@H](C)N(C)C(=O)[C@H](CC(C)C)NC(=O)[C@H](C(C)C)N(C)C1=O` [DP-447] ([NMeβAla][NMeV][NMeL]I[NMeV]L[NMeA][NMeF]TD[NMeF]A-Piperidide; lactam N-10) showed a Papp at 18 hours, 50 µM [1, 3] of 33 ×10⁻⁶ cm/s and a microsomal CLint at 1 uM [2, 4] of 159 µL/min/mg.

For `CC(C)C[C@H]1C(=O)N[C@H](C(=O)N2CCCCC2)Cc2cccc(c2)CCCCC(=O)N[C@@H]([C@@H](C)O)C(=O)N(C)[C@@H](C)C(=O)N(C)[C@@H](Cc2ccccc2)C(=O)NCC(=O)N(C)[C@@H](Cc2ccccc2)C(=O)N(C)[C@@H](CC(C)C)C(=O)N(C)[C@@H](CC(C)C)C(=O)N1C` [DP-843] (T[NMeA][NMeF]G[NMeF][NMeL][NMeL][NMeL][Phe(3-(CH2)4CO)]-Piperidide; lactam N-9), the Papp at 18 hours, 50 µM [1, 3] was 31 ×10⁻⁶ cm/s and the microsomal CLint at 1 uM [2, 4] was 505 µL/min/mg.

`CC[C@H](C)[C@H]1C(=O)N[C@H](C(=O)N2CCCCC2)Cc2cccc(c2)CCCCC(=O)N[C@@H](CC(C)C)C(=O)N2CCC[C@H]2C(=O)N(C)[C@@H](C(C)C)C(=O)N[C@@H](Cc2ccccc2)C(=O)N(C)[C@@H](Cc2ccccc2)C(=O)N(C)[C@@H](CC(C)C)C(=O)N[C@@H](C)C(=O)N1C` [DP-872] (LP[NMeV]F[NMeF][NMeL]A[NMeI][Phe(3-(CH2)4CO)]-Piperidide; lactam N-9) gave a Papp at 18 hours, 50 µM [1, 3] of 3.1 ×10⁻⁶ cm/s and a microsomal CLint at 1 uM [2, 4] of 397 µL/min/mg.
